In patent US20140256690A1, “CONTRACEPTIVE METHOD” (AGILE THERAPEUTICS, INC., priority 2013, published 2014):

Test: Saturation solubilities of enhancers in PSAs
Type: physicochemical
[1] = in Duro-Tak 87-4098 (polyacrylate PSA)

| Structure (SMILES) | Saturation Solubilities [1] [mg/g] | Saturation Solubilities (in PIB PSA) [mg/g] |
| --- | --- | --- |
| CCCCCCCCCCCCOC(=O)C(C)O (stereo not shown) [Lauryl Lactate, lauryl lactate] | 1000 | 785 |
| C[S+](C)[O-] [DMSO, dimethyl sulfoxide] | 8 | 0.01 |
